Target: T1, CCDC6-RET (Homo sapiens, UniProt P07949+Q16204+Q96SW2)
T1 construct: CCDC6 (natural N-terminal fusion partner, UniProt Q16204); endogenous in cells; host or cells: TPC-1 (parental, papillary thyroid carcinoma)
Assay: Cellular RET degradation, AlphaLISA, TPC-1 cell line
Format: cell-based
Settings: for Dmax: TPC1, human, 24 h, read-out: Cell Density TPC-1/CCDC6-RET Ymax %; for DC50: read-out: Cell Density TPC-1/CCDC6-RET DC50, half-maximal degradation concentration, TPC-1 (CCDC6-RET), 24 hrs
Procedure, shortened: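 TPC-1 papillary thyroid carcinoma cells (endogenous CCDC6-RET) in DMEM with 2% FBS, compound-treated 24 h at 37 °C. RET in lysates quantified by AlphaLISA luminescence, normalized to media-only and DMSO wells; DC50 and maximal degradation from 4-parameter logistic fit.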

T1 sequence (Q16204+P07949 fused): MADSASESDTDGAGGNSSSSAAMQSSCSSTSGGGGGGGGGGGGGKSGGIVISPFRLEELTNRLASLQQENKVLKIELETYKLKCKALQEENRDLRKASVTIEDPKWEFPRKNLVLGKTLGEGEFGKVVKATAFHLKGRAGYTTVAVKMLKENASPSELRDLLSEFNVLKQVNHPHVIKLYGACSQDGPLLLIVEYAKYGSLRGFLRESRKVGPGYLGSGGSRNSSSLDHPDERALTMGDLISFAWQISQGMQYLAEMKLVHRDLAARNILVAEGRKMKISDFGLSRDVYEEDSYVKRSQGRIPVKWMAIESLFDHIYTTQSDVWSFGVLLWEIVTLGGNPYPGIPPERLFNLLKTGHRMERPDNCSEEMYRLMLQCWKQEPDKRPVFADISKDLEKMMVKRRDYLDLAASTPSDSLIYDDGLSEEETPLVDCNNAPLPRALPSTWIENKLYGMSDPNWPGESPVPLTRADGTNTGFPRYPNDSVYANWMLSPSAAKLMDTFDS
T1 sequence (Q96SW2 whole entry, the tested form may be a part): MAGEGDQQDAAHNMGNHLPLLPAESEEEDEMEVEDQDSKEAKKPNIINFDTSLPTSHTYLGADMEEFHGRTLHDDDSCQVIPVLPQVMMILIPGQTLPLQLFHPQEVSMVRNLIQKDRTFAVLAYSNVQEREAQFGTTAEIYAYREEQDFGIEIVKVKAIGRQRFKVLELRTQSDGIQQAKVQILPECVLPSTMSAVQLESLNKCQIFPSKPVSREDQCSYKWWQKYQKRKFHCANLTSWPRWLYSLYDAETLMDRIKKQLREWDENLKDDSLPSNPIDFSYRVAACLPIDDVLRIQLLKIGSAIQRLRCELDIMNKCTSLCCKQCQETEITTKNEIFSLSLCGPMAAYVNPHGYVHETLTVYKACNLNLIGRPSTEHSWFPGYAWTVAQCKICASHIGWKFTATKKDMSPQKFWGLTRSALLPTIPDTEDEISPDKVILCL
T1 sequence (Q16531 whole entry partner, the tested form may be a part): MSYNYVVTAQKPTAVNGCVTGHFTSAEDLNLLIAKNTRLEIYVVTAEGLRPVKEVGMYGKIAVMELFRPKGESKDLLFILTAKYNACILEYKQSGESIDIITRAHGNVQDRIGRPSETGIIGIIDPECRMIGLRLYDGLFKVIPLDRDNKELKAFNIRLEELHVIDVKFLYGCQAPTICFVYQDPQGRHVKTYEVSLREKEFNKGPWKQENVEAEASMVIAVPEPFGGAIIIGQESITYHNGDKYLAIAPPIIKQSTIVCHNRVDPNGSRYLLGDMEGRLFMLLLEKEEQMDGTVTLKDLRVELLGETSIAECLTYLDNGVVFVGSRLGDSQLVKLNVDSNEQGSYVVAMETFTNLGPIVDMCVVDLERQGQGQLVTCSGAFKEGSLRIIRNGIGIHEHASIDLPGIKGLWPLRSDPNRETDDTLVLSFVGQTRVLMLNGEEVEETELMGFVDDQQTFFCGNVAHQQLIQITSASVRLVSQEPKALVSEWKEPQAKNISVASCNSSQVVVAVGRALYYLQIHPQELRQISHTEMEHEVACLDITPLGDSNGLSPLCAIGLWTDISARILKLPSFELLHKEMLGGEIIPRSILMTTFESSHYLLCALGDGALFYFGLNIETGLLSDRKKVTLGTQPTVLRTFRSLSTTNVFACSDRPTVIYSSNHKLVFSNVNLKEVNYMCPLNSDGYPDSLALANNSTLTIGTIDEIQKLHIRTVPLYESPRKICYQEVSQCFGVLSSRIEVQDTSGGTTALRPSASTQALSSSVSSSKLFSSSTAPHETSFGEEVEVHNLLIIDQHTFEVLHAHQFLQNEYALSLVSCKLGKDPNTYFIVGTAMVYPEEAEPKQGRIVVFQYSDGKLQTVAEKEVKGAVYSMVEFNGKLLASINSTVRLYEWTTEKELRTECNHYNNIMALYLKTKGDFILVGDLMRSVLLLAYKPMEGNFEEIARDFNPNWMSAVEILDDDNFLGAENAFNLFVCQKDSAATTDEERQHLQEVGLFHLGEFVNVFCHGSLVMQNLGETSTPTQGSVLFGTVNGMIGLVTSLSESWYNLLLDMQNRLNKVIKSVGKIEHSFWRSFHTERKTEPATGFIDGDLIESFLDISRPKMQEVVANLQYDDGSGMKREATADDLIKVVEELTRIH

Dmax [%]	DC50 [nM]	SMILES
> 90	10 to 100	CCOc1cc(-c2ccc(N3CCC(CN4CC5(C4)CN(C(=O)CCN4CCC(c6ccc7c(c6)CN(C6CCC(=O)NC6=O)C7=O)CC4)C5)(NC(=O)c4cc(F)ccc4F)CC3)nc2)c2c(C#N)cnn2c1 (stereo not drawn) [Example 89, N-[1-(5-{3-cyano-6-ethoxypyrazolo[1,5-a]pyridin-4-yl}pyridin-2-yl)-4-{[6-(3-{4-[2-(2,6-dioxopiperidin-3-yl)-1-oxo-2,3-dihydro-1H-isoindol-5-yl]piperidin-1-yl}propanoyl)-2,6-diazaspiro[3.3]heptan-2-yl]methyl}piperidin-4-yl]-2,5-difluorobenzamide]
> 90	10 to 100	CCOc1cc(-c2ccc(N3CCC(CN(C)C(=O)CCCCN4CCC(c5ccc6c(c5)CN(C5CCC(=O)NC5=O)C6=O)CC4)(NC(=O)c4cc(F)ccc4F)CC3)nc2)c2c(C#N)cnn2c1 (stereo not drawn) [Example 139, N-[1-(5-{3-cyano-6-ethoxypyrazolo[1,5-a]pyridin-4-yl}pyridin-2-yl)-4-[(5-{4-[2-(2,6-dioxopiperidin-3-yl)-1-oxo-2,3-dihydro-1H-isoindol-5-yl]piperidin-1-yl}-N-methylpentanamido)methyl]piperidin-4-yl]-2,5-difluorobenzamide]

More lines, now with the values behind:

SMILES	Dmax [%]	DC50 [nM]
CCOc1cc(-c2ccc(N3CCC(C)(CN4CCN(C(=O)CCCCCCN5CCN(c6ccc7c(c6)CN(C6CCC(=O)NC6=O)C7=O)CC5)CC4)CC3)nc2)c2c(C#N)cnn2c1 (stereo not drawn) [Example 128, 4-[6-(4-{[4-(7-{4-[2-(2,6-dioxopiperidin-3-yl)-1-oxo-2,3-dihydro-1H-isoindol-5-yl]piperazin-1-yl}heptanoyl)piperazin-1-yl]methyl}-4-methylpiperidin-1-yl)pyridin-3-yl]-6-ethoxypyrazolo[1,5-a]pyridine-3-carbonitrile]	60 to 90	100 to 2000
CCOc1cc(-c2ccc(N3CCC(CN4CCN(C(=O)C5CC6(C5)CC(C(=O)N5CCN(c7ccc8c(c7)C(=O)N(C7CCC(=O)NC7=O)C8)CC5)C6)CC4)(NC(=O)c4cc(F)ccc4F)CC3)nc2)c2c(C#N)cnn2c1 (stereo not drawn) [Example 86, N-[1-(5-{3-cyano-6-ethoxypyrazolo[1,5-a]pyridin-4-yl}pyridin-2-yl)-4-{[4-(6-{4-[2-(2,6-dioxopiperidin-3-yl)-3-oxo-2,3-dihydro-1H-isoindol-5-yl]piperazine-1-carbonyl}spiro[3.3]heptane-2-carbonyl)piperazin-1-yl]methyl}piperidin-4-yl]-2,5-difluorobenzamide]	> 90	< 2
CCOc1cc(-c2ccc(N3CCC(CN4CCN(C(=O)CCN5CCN(c6ccc7c(c6)CN(C6CCC(=O)NC6=O)C7=O)CC5)CC4)(C(=O)NC(C)C)CC3)nc2)c2c(C#N)cnn2c1 (stereo not drawn) [Example 77, 1-(5-(3-Cyano-6-ethoxypyrazolo[1,5-a]pyridin-4-yl)pyridin-2-yl)-4-((4-(3-(4-(2-(2,6-dioxopiperidin-3-yl)-1-oxoisoindolin-5-yl)piperazin-1-yl)propanoyl)piperazin-1-yl)methyl)-N-isopropylpiperidine-4-carboxamide]	60 to 90	< 2
CCOc1cc(-c2ccc(N3CCC(CN4CCN(C(=O)CCCCCCN5CCC(c6ccc7c(c6)C(=O)N(C6CCC(=O)NC6=O)C7)CC5)CC4)(NC(=O)c4cc(F)ccc4F)CC3)nc2)c2c(C#N)cnn2c1 (stereo not drawn) [Example 19, N-[1-(5-{3-cyano-6-ethoxypyrazolo[1,5-a]pyridin-4-yl}pyridin-2-yl)-4-{[4-(7-{4-[2-(2,6-dioxopiperidin-3-yl)-3-oxo-2,3-dihydro-1H-isoindol-5-yl]piperidin-1-yl}heptanoyl)piperazin-1-yl]methyl}piperidin-4-yl]-2,5-difluorobenzamide]	> 90	2 to 10

Source: patent US20260356830A1, “COMPOUNDS FOR MODULATING RET PROTEIN” (Bristol-Myers Squibb Company, priority 2022, published 2026)
